Some results are limits rather than exact numbers.

These results are taken from publication PMC7215599, “Synthesis, Antitumor Evaluation, Molecular Modeling and Quantitative Structure–Activity Relationship (QSAR) of Novel 2-[(4-Amino-6-N-substituted-1,3,5-triazin-2-yl)methylthio]-4-chloro-5-methyl-N-(1H-benzo[d]imidazol-2(3H)-ylidene)Benzenesulfonamides” (International Journal of Molecular Sciences, 2020).

Test [1] has as its system HeLa (cervical cancer) cell line. Put plainly: MTT cell viability assay, HeLa. It is filed as cell-based, human. To be noted: 72 h, MTT, 1-100 µM, mean ± SD. The method, then: (§1) Compounds 6–49 were evaluated in vitro for their effects on the viability of the three human cancer cell lines: HCT-116 (colon cancer), MCF-7 (breast cancer) and HeLa (cervical cancer) as well as the non-cancerous keratinocyte cell line (HaCaT). The concentration required for 50% inhibition of cell viability IC50 was calculated and compared with the reference drug cisplatin, the results are shown in Table 1.
(§2) Cell lines: colon cancer (HCT-116), breast cancer (MCF-7), cervical cancer (HeLa), the human keratinocyte cell line (HaCaT); NT—not tested; IC50 was measured at concentrations 1, 10, 25, 50, and 100 µM. IC50 values are expressed as the mean ± SD of at last three independent experiments.
(§3) All chemicals, if not stated otherwise, were obtained from Sigma–Aldrich (St. Louis, MO, USA). The HCT-116 cell lines was purchased from ATCC (ATCC-No: CCL-247), while the MCF-7, HeLa and HaCaT cell lines were purchased from Cell Lines Services (Eppelheim, Germany). Cells were cultured in Dulbecco’s modified Eagle’s medium (DMEM) supplemented with 10% fetal bovine serum, 2 mM glutamine, 100 units/mL penicillin, and 100 µg/mL streptomycin. Cultures were maintained in a humidified atmosphere with 5% carbon dioxide at 37 °C in an incubator (Heraceus, HeraCell).
(§4) Cell viability was examined using the MTT (3-(4,5-dimethylthiazol-2-yl)-2,5-diphenyltetrazolium bromide) assay. Cells were seeded in 96-well plates at a density of 5 × 10^3 cells/well and treated for 72 h with the tested compounds in the concentration range of 1–100 µM (1, 10, 25, 50 and 100 µM). Then, MTT (0.5 mg/mL) was added to the medium and cells were further incubated for 2 h at 37 °C. In the next stage, cells were lysed with DMSO and the absorbance of the formazan solution was measured at 550 nm with a plate reader (1420 multilabel counter, Victor, Jügesheim, Germany). The experiment was performed in triplicate. Values are expressed as the mean ± SD of at least three independent experiments. Cisplatin was used as a positive control.

The subject of test [2] is HCT-116 (colon cancer) cell line. As to the kind of experiment: MTT cell viability assay, HCT-116. The class given is cell-based, human. The settings on record: Homo sapiens, HCT-116, 72 h, MTT, 72 h, 1-100 µM, mean ± SD. The method, then: as §1, §2, §3, §4
Test [3] concerns MCF-7 (breast cancer) cell line. As to the kind of experiment: MTT cell viability assay, MCF-7. It is filed as cell-based, human. To be noted: MTT, 72 h, 1-100 µM, mean ± SD. The method, then: as §1, §2, §3, §4
Test [4] deals with HaCaT (non-cancerous keratinocyte cell line). Put plainly: MTT cell viability assay, HaCaT. To be noted: Homo sapiens, 72 h, 1-100 µM, mean ± SD, non-cancerous cells. It is filed as cell-based. The procedure: as §1, §2, §3, §4

With `CC1=NN(c2nc(N)nc(CSc3cc(Cl)c(C)cc3S(=O)(=O)N=c3[nH]c4ccc(F)cc4[nH]3)n2)C(C)(C)C1` [Compound 33, 2-{[4-Amino-6-(3,5,5-trimethyl-4,5-dihydro-1H-pyrazol-1-yl)-1,3,5-triazin-2-yl]metylthio}-4-chloro-N-(5-fluoro-1H-benzo[d]imidazol-2(3H)-ylidene)-5-methylbenzenesulfonamide], the IC50 was 30 ± 2 µM in test [1] (Homo sapiens, HeLa); 19 ± 1 µM in test [2]; 35 ± 2 µM in test [3] (Homo sapiens, MCF7, 72 h); 48 ± 2 µM in test [4].

For `Cc1cc(S(=O)(=O)N=c2[nH]c3ccc(Cl)cc3[nH]2)c(SCc2nc(N)nc(N3CCN(c4ccc(Cl)c(Cl)c4)CC3)n2)cc1Cl` [Compound 48, 2-[{4-Amino-6-[4-(3,4-dichlorophenyl)piperazin-1-yl]-1,3,5-triazin-2-yl}methylthio]-4-chloro-N-(5-chloro-1H-benzo[d]imidazol-2(3H)-ylidene)-5-methylbenzenesulfonamide], the half-inhibitory concentration (IC50) is 34 ± 1 µM in test [1] (Homo sapiens, HeLa); 34 ± 2 µM in test [2]; 32 ± 1 µM in test [3] (Homo sapiens, MCF7, 72 h); 40 ± 2 µM in test [4].

In the case of `Cc1cc(S(=O)(=O)N=c2[nH]c3ccc(F)cc3[nH]2)c(SCc2nc(N)nc(N3CCN(c4ccccc4)CC3)n2)cc1Cl` [Compound 37, 2-[{[4-Amino-6-(4-phenylpiperazin-1-yl)-1,3,5-triazin-2-yl]methyl}thio]-4-chloro-N-(5-fluoro-1H-benzo[d]imidazol-2(3H)-ylidene)-5-methylbenzenesulfonamide], the IC50 stood at 20 ± 1 µM in test [1] (Homo sapiens, HeLa); 17 ± 1 µM in test [2]; 27 ± 2 µM in test [3] (Homo sapiens, MCF7, 72 h); 39 ± 1 µM in test [4].

As for `Cc1cc(S(=O)(=O)N=c2[nH]c3ccc(Cl)cc3[nH]2)c(SCc2nc(N)nc(N3CCN(c4ccccc4)CC3)n2)cc1Cl` [Compound 45, 2-[{4-Amino-6-[4-(4-phenyl)piperazin-1-yl]-1,3,5-triazin-2-yl}metylthio]-4-chloro-N-(5-chloro-1H-benzo[d]imidazol-2(3H)-ylidene)-5-methylbenzenesulfonamide], the IC50 was 28 ± 1 µM in test [1] (Homo sapiens, HeLa); 15 ± 1 µM in test [2]; 26 ± 1 µM in test [3] (Homo sapiens, MCF7, 72 h); 39 ± 1 µM in test [4].

For the compound `Cc1cc(S(=O)(=O)N=c2[nH]c3ccc(F)cc3[nH]2)c(SCc2nc(N)nc(N3CCN(c4ccc(Cl)cc4)CC3)n2)cc1Cl` [Compound 39, 2-[{4-Amino-6-[4-(4-chlorophenyl)piperazin-1-yl]-1,3,5-triazin-2-yl}metylthio]-4-chloro-N-(5-fluoro-1H-benzo[d]imidazol-2(3H)-ylidene)-5-methylbenzenesulfonamide], the IC50 in test [1] (Homo sapiens, HeLa) is 28 ± 2 µM; in test [2], 35 ± 2 µM; in test [3] (Homo sapiens, MCF7, 72 h), above 100 µM; in test [3] it was 74 ± 2 µM; in test [4], 76 ± 2 µM.

In the case of `Cc1cc(S(=O)(=O)N=c2[nH]c3ccc(F)cc3[nH]2)c(SCc2nc(N)nc(N3CCN(c4ccc(Cl)c(Cl)c4)CC3)n2)cc1Cl` [Compound 40, 2-[{4-Amino-6-[4-(3,4-dichlorophenyl)piperazin-1-yl]-1,3,5-triazin-2-yl}metylthio]-4-chloro-N-(5-fluoro-1H-benzo[d]imidazol-2(3H)-ylidene)-5-methylbenzenesulfonamide], the half-maximal inhibitory concentration (IC50) in test [1] (Homo sapiens, HeLa) amounted to 18 ± 1 µM; in test [2], 16 ± 1 µM; in test [3] (Homo sapiens, MCF7, 72 h) it was 43 ± 1 µM; in test [4] it was 46 ± 1 µM.

Regarding `COc1ccccc1N1CCN(c2nc(N)nc(CSc3cc(Cl)c(C)cc3S(=O)(=O)N=c3[nH]c4ccc(Cl)cc4[nH]3)n2)CC1` [Compound 49, 2-[{4-Amino-6-[4-(2-methoxyphenyl)piperazin-1-yl]-1,3,5-triazin-2-yl}methylthio]-4-chloro-N-(5-chloro-1H-benzo[d]imidazol-2(3H)-ylidene)-5-methylbenzenesulfonamide], the IC50 was determined as 34 ± 1 µM in test [1] (Homo sapiens, HeLa); 30 ± 1 µM in test [2]; 35 ± 1 µM in test [3] (Homo sapiens, MCF7, 72 h); 96 ± 1 µM in test [4].

Regarding `Cc1cc(S(=O)(=O)N=c2[nH]c3ccccc3[nH]2)c(SCc2nc(N)nc(N(C)C)n2)cc1Cl` [Compound 6, 2-{[4-Amino-6-(dimethylamino)-1,3,5-triazin-2-yl]methylthio}-N-(1H-benzo[d]imidazol-2(3H)-ylidene)-4-chloro-5-methylbenzenesulfonamide], the IC50 in test [1] (Homo sapiens, HeLa) turned out to be 50 ± 2 µM; in test [2] it was 49 ± 1 µM; in test [3] (Homo sapiens, MCF7, 72 h), 52 ± 1 µM; in test [4], 57 ± 3 µM.

For the compound `Cc1cc(S(=O)(=O)N=c2[nH]c3ccccc3[nH]2)c(SCc2nc(N)nc(N(C)c3ccc(Cl)cc3)n2)cc1Cl` [Compound 17, 2-[{4-Amino-6-[(4-chlorophenyl)(methyl)amino]-1,3,5-triazin-2-yl}methylthio]-N-(1H-benzo[d]imidazol-2(3H)-ylidene)-4-chloro-5-methylbenzenesulfonamide], the IC50 is 30 ± 1 µM in test [1] (Homo sapiens, HeLa); 29 ± 1 µM in test [2]; 31 ± 1 µM in test [3] (Homo sapiens, MCF7, 72 h); 43 ± 2 µM in test [4].

`Cc1cc(S(=O)(=O)N=c2[nH]c3ccccc3[nH]2)c(SCc2nc(N)nc(N3CCN(c4ccc(F)c(Cl)c4)CC3)n2)cc1Cl` [Compound 26, 2-[{4-Amino-6-[4-(3-chloro-4-fluorophenyl)piperazin-1-yl]-1,3,5-triazin-2-yl}methylthio]-N-(1H-benzo[d]imidazol-2(3H)-ylidene)-4-chloro-5-methylbenzenesulfonamide]: the IC50 in test [1] (Homo sapiens, HeLa) came to 21 ± 0.4 µM; in test [2], 17 ± 0.5 µM; in test [3] (Homo sapiens, MCF7, 72 h), 20 ± 1 µM; in test [4] it was 35 ± 1 µM.

As for `Cc1cc(S(=O)(=O)N=c2[nH]c3ccccc3[nH]2)c(SCc2nc(N)nc(N(C)c3ccccc3)n2)cc1Cl` [Compound 16, 2-[{4-Amino-6-[methyl(phenyl)amino]-1,3,5-triazin-2-yl}metylthio]-N-(1H-benzo[d]imidazol-2(3H)-ylidene)-4-chloro-5-methylbenzenesulfonamide], the IC50 in test [1] (Homo sapiens, HeLa) was found to be 33 ± 1 µM; in test [2], 33 ± 1 µM; in test [3] (Homo sapiens, MCF7, 72 h) it was 32 ± 1 µM; in test [4], 45 ± 2 µM.

For the compound `Cc1cc(S(=O)(=O)N=c2[nH]c3ccccc3[nH]2)c(SCc2nc(N)nc(N3CCOCC3)n2)cc1Cl` [Compound 7, 2-[(4-Amino-6-morpholino-1,3,5-triazin-2-yl)methylthio]-N-(1H-benzo[d]imidazol-2(3H)-ylidene)-4-chloro-5-methylbenzenesulfonamide], the IC50 is above 100 µM in test [1] (Homo sapiens, HeLa); 86 ± 3 µM in test [1]; 75 ± 3 µM in test [2]; above 100 µM in test [3] (Homo sapiens, MCF7, 72 h); 99 ± 3 µM in test [3]; 102 ± 4 µM in test [4].

With `Cc1cc(S(=O)(=O)N=c2[nH]c3ccccc3[nH]2)c(SCc2nc(N)nc(N3CCN(C(c4ccccc4)c4ccccc4)CC3)n2)cc1Cl` [Compound 31], the IC50 in test [1] (Homo sapiens, HeLa) stood at 39 ± 1 µM; in test [2] it was 18 ± 1 µM; in test [3] (Homo sapiens, MCF7, 72 h) it was 46 ± 2 µM; in test [4], 54 ± 2 µM.

For the compound `COc1ccc(Nc2nc(N)nc(CSc3cc(Cl)c(C)cc3S(=O)(=O)N=c3[nH]c4ccccc4[nH]3)n2)cc1` [Compound 14, 2-[{4-Amino-6-[(4-methoxyphenyl)amino]-1,3,5-triazin-2-yl}metylthio]-N-(1H-benzo[d]imidazol-2(3H)-ylidene)-4-chloro-5-methylbenzenesulfonamide], the IC50 in test [1] (Homo sapiens, HeLa) worked out at 56 ± 2 µM; in test [2], 54 ± 2 µM; in test [3] (Homo sapiens, MCF7, 72 h), 41 ± 1 µM; in test [4], 65 ± 3 µM.

For the compound `COc1ccc(Nc2nc(N)nc(CSc3cc(Cl)c(C)cc3S(=O)(=O)N=c3[nH]c4ccc(Cl)cc4[nH]3)n2)cc1` [Compound 44, 2-[{4-Amino-6-[(4-methoxyphenyl)amino]-1,3,5-triazin-2-yl}methylthio]-4-chloro-N-(5-chloro-1H-benzo[d]imidazol-2(3H)-ylidene)-5-methylbenzenesulfonamide], the IC50 amounted to 50 ± 2 µM in test [1] (Homo sapiens, HeLa); 48 ± 1 µM in test [2]; 47 ± 2 µM in test [3] (Homo sapiens, MCF7, 72 h); 61 ± 2 µM in test [4].

Regarding `COc1ccc(N2CCN(c3nc(N)nc(CSc4cc(Cl)c(C)cc4S(=O)(=O)N=c4[nH]c5ccccc5[nH]4)n3)CC2)cc1` [Compound 27, 2-[{4-Amino-6-[4-(4-methoxyphenyl)piperazin-1-yl]-1,3,5-triazin-2-yl}metylthio]-N-(1H-benzo[d]imidazol-2(3H)-ylidene)-4-chloro-5-methylbenzenesulfonamide], the IC50 in test [1] (Homo sapiens, HeLa) is above 100 µM; in test [1] it was 74 ± 1 µM; in test [2], 35 ± 1 µM; in test [3] (Homo sapiens, MCF7, 72 h), above 100 µM; in test [3], 110 ± 3 µM; in test [4], 98 ± 2 µM.
